From ChEMBL document CHEMBL5729081, “Morpholine derivative” (2022) come the findings set out here.

This data set has as its target hERG (KCNH2) potassium channel (Homo sapiens, UniProt Q12809). Nature of the data set: For electrophysiological measurements cells were seeded onto 35 mm sterile culture dishes containing 2 ml culture medium without Hygromycin B. Cells were cultivated at a density that enabled single cells (without visible connections to neighbouring cells) to be measured. […] The cells were continuously maintained in and passaged in sterile culture flasks containing nutrient mixture F-12 (DMEM/F-12 with L-Glutamine) supplemented with 10% foetal bovine serum and 10% penicillin/streptomycin solution. […] The 35 mm culture dishes upon which cells were seeded at a density allowing single cells to be recorded were placed on the dish holder of the microscope and continuously perfused (at approximately 1 ml/min) with the bath solution (sodium chloride 150 mM, potassium chloride 4 mM, calcium chloride 1.2 mM, magnesium chloride 1 mM, HEPES 10 mM, pH (NaOH) 7.4) at near physiological temperature (36±1° C.). After formation of a Gigaohm seal between the patch electrodes and individual hERG stably transfected CHO cells (pipette resistance range: 2.0 MΩ-7.0 MΩ; seal resistance range: >1 GΩ) the cell membrane across the pipette tip was ruptured to assure electrical access to the cell interior (whole-cell patch-configuration). In case the quality of the seal was poor, the process of seal formation was repeated with a different cell and a new pipette. […] […]. Particulars: CHO cells stably expressing the hERG channel, pH 7.4. Type of data set: cell-based.

The IC50 is the midpoint of a concentration-inhibition curve.

Chain of hERG (KCNH2) potassium channel (Q12809 whole entry, the tested form may be a part): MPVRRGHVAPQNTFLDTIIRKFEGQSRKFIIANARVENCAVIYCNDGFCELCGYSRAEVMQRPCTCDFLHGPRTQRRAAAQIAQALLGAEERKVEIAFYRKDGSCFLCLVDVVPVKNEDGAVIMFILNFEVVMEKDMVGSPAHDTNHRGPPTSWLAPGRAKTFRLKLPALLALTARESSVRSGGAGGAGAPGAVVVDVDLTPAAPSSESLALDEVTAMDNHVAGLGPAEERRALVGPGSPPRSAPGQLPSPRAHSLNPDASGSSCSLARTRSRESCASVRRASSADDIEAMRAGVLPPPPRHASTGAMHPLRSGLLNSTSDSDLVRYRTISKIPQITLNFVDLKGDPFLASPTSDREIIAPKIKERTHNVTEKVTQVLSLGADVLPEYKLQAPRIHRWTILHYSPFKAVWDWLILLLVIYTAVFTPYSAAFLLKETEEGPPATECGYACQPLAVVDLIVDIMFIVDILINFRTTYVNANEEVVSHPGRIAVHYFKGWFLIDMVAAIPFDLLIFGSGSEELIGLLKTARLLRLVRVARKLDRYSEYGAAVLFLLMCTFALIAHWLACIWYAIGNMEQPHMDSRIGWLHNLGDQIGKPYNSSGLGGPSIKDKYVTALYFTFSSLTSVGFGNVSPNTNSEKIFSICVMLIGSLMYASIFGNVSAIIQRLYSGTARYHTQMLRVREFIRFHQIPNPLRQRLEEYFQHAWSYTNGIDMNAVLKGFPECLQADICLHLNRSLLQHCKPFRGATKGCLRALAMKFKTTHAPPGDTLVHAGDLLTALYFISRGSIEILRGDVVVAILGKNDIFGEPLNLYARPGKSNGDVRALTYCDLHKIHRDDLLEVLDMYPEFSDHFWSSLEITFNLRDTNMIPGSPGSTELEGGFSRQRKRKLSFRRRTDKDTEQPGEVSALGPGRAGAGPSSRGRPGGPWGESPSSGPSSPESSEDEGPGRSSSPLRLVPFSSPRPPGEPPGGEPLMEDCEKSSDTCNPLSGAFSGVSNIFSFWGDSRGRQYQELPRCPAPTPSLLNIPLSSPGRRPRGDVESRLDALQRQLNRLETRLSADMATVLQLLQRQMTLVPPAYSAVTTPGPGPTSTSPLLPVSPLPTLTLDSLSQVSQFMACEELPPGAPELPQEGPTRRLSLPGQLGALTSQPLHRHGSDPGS

`O=C(Nc1ccc([C@H]2CNCCO2)cc1)c1ccc(Cl)nc1`: the IC50 turned out to be 14.3 µM.
